PubChem BioAssay AID280 (DTP/NCI, 2004)
“And” between values parts separate entries of the source, which are not always exact repeats. Equal entries are not always repeated. Inconclusive results and toxic doses are left out.

Tested on: nude mice, LOX melanoma ip, survival T/C
Experiment: NCI In Vivo Anticancer Drug Screen. Data for tumor model Human Amelanotic Melanoma (LOX) (intraperitoneal) in NU/NU BALB/C (nude) mice
Conditions: endpoint: median survival time, higher = longer survival
Procedure: The antitumor activity of compounds was measured in mice bearing transplantable tumors. Survival or tumor size were measured and the results are expressed as the measurement made in the treated group (T) divided by the measurement made in the vehicle treated control group (C). The tumor model used in this assay is Human Amelanotic Melanoma (LOX) (intraperitoneal) in NU/NU BALB/C (nude) mice

[1] = dose: 8.0 mg/kg/injection, schedule: Q04DX003 (ip), vehicle: saline
[2] = dose: 50.0 mg/kg/injection, schedule: Q04DX003 (ip), vehicle: saline with Tween-80
[3] = dose: 200.0 mg/kg/injection, schedule: Q04DX003 (ip), vehicle: saline with Tween-80
[4] = dose: 100.0 mg/kg/injection, schedule: Q04DX003 (ip), vehicle: saline with Tween-80

## O=NN(CCCl)C(=O)Oc1ccc(OC(=O)N(CCCl)N=O)cc1
dose: 20.0 mg/kg/injection, schedule: Q04DX003 (ip), vehicle: Klucel (hydroxypropylcellulose) (HPC)
  T/C: 118 % of control
dose: 40.0 mg/kg/injection, schedule: Q04DX003 (ip), vehicle: Klucel (hydroxypropylcellulose) (HPC)
  T/C: 94 % of control

## COC1=C(C)C(=O)C2=C(C1=O)C(CO)N1C(C#N)C3CC4C(C1C2N1CCOC41)N3C (stereo not drawn)
dose: 0.63 mg/kg/injection, schedule: Q04DX003 (ip), vehicle: acid diluted with saline
  T/C: 109 % of control
dose: 0.63 mg/kg/injection, schedule: Q04DX003 (ip), vehicle: saline + alcohol
  T/C: 122 % of control
dose: 1.25 mg/kg/injection, schedule: Q04DX003 (ip), vehicle: acid diluted with saline
  T/C: 123 % of control
dose: 2.5 mg/kg/injection, schedule: Q04DX003 (ip), vehicle: acid diluted with saline
  T/C: 115 % of control
dose: 2.5 mg/kg/injection, schedule: Q04DX003 (ip), vehicle: saline + alcohol
  T/C: 168 % of control

## COc1cc2cc(c1Cl)N(C)C(=O)C[C@H](OC(=O)[C@H](C)N(C)C(C)=O)[C@]1(C)O[C@H]1[C@H](C)[C@@H]1C[C@@](O)(NC(=O)O1)[C@H](OC)C=C/C=C(\C)C2
dose: 0.07 mg/kg/injection, schedule: Q04DX003 (ip), vehicle: Klucel (hydroxypropylcellulose) (HPC)
  T/C: 304 % of control
dose: 0.12 mg/kg/injection, schedule: Q04DX003 (ip), vehicle: Klucel (hydroxypropylcellulose) (HPC)
  T/C: 304 % of control
dose: 0.2 mg/kg/injection, schedule: Q04DX003 (ip), vehicle: Klucel (hydroxypropylcellulose) (HPC)
  T/C: 304 % of control and 323 % of control
dose: 0.33 mg/kg/injection, schedule: Q04DX003 (ip), vehicle: Klucel (hydroxypropylcellulose) (HPC)
  T/C: 304 % of control
dose: 0.4 mg/kg/injection, schedule: Q04DX003 (ip), vehicle: Klucel (hydroxypropylcellulose) (HPC)
  T/C: 95 % of control
dose: 0.56 mg/kg/injection, schedule: Q04DX003 (ip), vehicle: Klucel (hydroxypropylcellulose) (HPC)
  T/C: 304 % of control

## OCC1OC(n2cnc3c2NC=NC[C@H]3O)CC1O (stereo partly drawn)
dose: 2.0 mg/kg/injection, schedule: Q04DX003 (ip), vehicle: saline
  T/C: 102 % of control
dose: 4.0 mg/kg/injection, schedule: Q04DX003 (ip), vehicle: saline
  T/C: 94 % of control
[1]
  T/C: 96 % of control
dose: 16.0 mg/kg/injection, schedule: Q04DX003 (ip), vehicle: saline
  T/C: 100 % of control

## O=C1C=CC(=CC=C2C=CN(CCCCCCCCCCCO)C=C2)C=C1
dose: 6.25 mg/kg/injection, schedule: Q04DX003 (ip), vehicle: saline with Tween-80
  T/C: 107 % of control
dose: 12.5 mg/kg/injection, schedule: Q04DX003 (ip), vehicle: saline with Tween-80
  T/C: 100 % of control
dose: 36.0 mg/kg/injection, schedule: Q04DX003 (ip), vehicle: saline with Tween-80
  T/C: 109 % of control and 110 % of control
[2]
  T/C: 117 % of control
dose: 60.0 mg/kg/injection, schedule: Q04DX003 (ip), vehicle: saline with Tween-80
  T/C: 116 % of control and 120 % of control
[3]
  T/C: 159 % of control

## O=C1CN(CCN2CC(=O)N(CN3CCOCC3)C(=O)C2)CC(=O)N1CN1CCOCC1
dose: 18.75 mg/kg/injection, schedule: Q04DX003 (ip), vehicle: saline with Tween-80
  T/C: 98 % of control
dose: 37.5 mg/kg/injection, schedule: Q04DX003 (ip), vehicle: saline with Tween-80
  T/C: 120 % of control
dose: 37.5 mg/kg/injection, schedule: Q04DX003 (ip), vehicle: water
  T/C: 88 % of control
dose: 75.0 mg/kg/injection, schedule: Q04DX003 (ip), vehicle: saline with Tween-80
  T/C: 108 % of control
dose: 75.0 mg/kg/injection, schedule: Q04DX003 (ip), vehicle: water
  T/C: 102 % of control
dose: 150.0 mg/kg/injection, schedule: Q04DX003 (ip), vehicle: water
  T/C: 101 % of control

## O=S(=O)(c1cccc(N=C=S)c1)c1cccc(N=C=S)c1
dose: 15.0 mg/kg/injection, schedule: Q04DX003 (ip), vehicle: Klucel (hydroxypropylcellulose) (HPC)
  T/C: 91 % of control
dose: 30.0 mg/kg/injection, schedule: Q04DX003 (ip), vehicle: Klucel (hydroxypropylcellulose) (HPC)
  T/C: 95 % of control
dose: 60.0 mg/kg/injection, schedule: Q04DX003 (ip), vehicle: Klucel (hydroxypropylcellulose) (HPC)
  T/C: 107 % of control
dose: 120.0 mg/kg/injection, schedule: Q04DX003 (ip), vehicle: Klucel (hydroxypropylcellulose) (HPC)
  T/C: 109 % of control

## Cc1c(N)nc([C@H](CC(N)=O)NC[C@H](N)C(N)=O)nc1C(=O)N[C@H](C(=O)N[C@H](C)[C@@H](O)[C@H](C)C(=O)N[C@H](C(=O)NCCc1nc(-c2nc(C(=O)NCCC[S+](C)C)cs2)cs1)[C@@H](C)O)C(OC1OC(CO)C(O)C(O)C1OC1OC(CO)C(O)C(OC(N)=O)C1O)c1cnc[nH]1 (stereo partly drawn)
dose: 2.0 mg/kg/injection, schedule: Q01DX015 (ip), vehicle: saline
  T/C: 165 % of control
dose: 4.0 mg/kg/injection, schedule: Q01DX005 (ip), vehicle: saline
  T/C: 155 % of control
dose: 4.0 mg/kg/injection, schedule: Q01DX015 (ip), vehicle: saline
  T/C: 159 % of control
dose: 8.0 mg/kg/injection, schedule: Q01DX005 (ip), vehicle: saline
  T/C: 175 % of control
dose: 8.0 mg/kg/injection, schedule: Q01DX015 (ip), vehicle: saline
  T/C: 176 % of control
[1]
  T/C: 160 % of control
dose: 16.0 mg/kg/injection, schedule: Q01DX015 (ip), vehicle: saline
  T/C: 87 % of control
dose: 24.0 mg/kg/injection, schedule: Q04DX003 (ip), vehicle: saline
  T/C: 110 % of control
dose: 32.0 mg/kg/injection, schedule: Q01DX001 (ip), vehicle: saline
  T/C: 150 % of control
dose: 32.0 mg/kg/injection, schedule: Q01DX005 (ip), vehicle: saline
  T/C: 175 % of control
dose: 32.0 mg/kg/injection, schedule: Q04DX003 (ip), vehicle: saline
  T/C: 176 % of control
dose: 36.0 mg/kg/injection, schedule: Q04DX003 (ip), vehicle: saline
  T/C: 105 % of control
dose: 64.0 mg/kg/injection, schedule: Q01DX001 (ip), vehicle: saline
  T/C: 151 % of control
dose: 128.0 mg/kg/injection, schedule: Q01DX001 (ip), vehicle: saline
  T/C: 150 % of control

## COc1cc(C2CC(C)(O)Oc3cc4c(cc32)OCO4)cc(OC)c1OC (stereo not drawn)
[2]
  T/C: 109 % of control and 98 % of control
[4]
  T/C: 96 % of control
[3]
  T/C: 93 % of control

## CNC(=O)/C=C/C1=CN2C(=O)c3ccc(C)c(O)c3NC(OC)C2C1 (stereo not drawn)
dose: 200.0 micrograms/kg/injection, schedule: Q04DX003 (ip), vehicle: saline
  T/C: 121 % of control

## O=C1C(=O)c2cccnc2-c2ncccc21
dose: 2.5 mg/kg/injection, schedule: Q04DX003 (ip), vehicle: Klucel (hydroxypropylcellulose) (HPC)
  T/C: 94 % of control
dose: 5.0 mg/kg/injection, schedule: Q04DX003 (ip), vehicle: Klucel (hydroxypropylcellulose) (HPC)
  T/C: 101 % of control

## COc1ccc(O)cc1
[4]
  T/C: 124 % of control
[3]
  T/C: 102 % of control

## CC1=NN(c2cccc(S(=O)(=O)O)c2)C(=O)C1N=Nc1cc(Cl)cc(S(=O)(=O)O)c1O.CC1=NN(c2cccc(S(=O)(=O)O)c2)C(=O)C1N=Nc1cc(Cl)cc(S(=O)(=O)O)c1O.[Cr] (stereo not drawn)
dose: 75.0 mg/kg/injection, schedule: Q04DX003 (ip), vehicle: suspension in saline
  T/C: 97 % of control
dose: 150.0 mg/kg/injection, schedule: Q04DX003 (ip), vehicle: suspension in saline
  T/C: 94 % of control
dose: 300.0 mg/kg/injection, schedule: Q04DX003 (ip), vehicle: suspension in saline
  T/C: 87 % of control

## Cc1nc(C(Cl)(Cl)Cl)[nH]c(=O)c1SCCO
dose: 75.0 mg/kg/injection, schedule: Q04DX003 (ip), vehicle: distilled water + Tween-80 + alcohol
  T/C: 102 % of control
dose: 150.0 mg/kg/injection, schedule: Q04DX003 (ip), vehicle: distilled water + Tween-80 + alcohol
  T/C: 116 % of control
dose: 300.0 mg/kg/injection, schedule: Q04DX003 (ip), vehicle: distilled water + Tween-80 + alcohol
  T/C: 101 % of control
dose: 600.0 mg/kg/injection, schedule: Q04DX003 (ip), vehicle: distilled water + Tween-80 + alcohol
  T/C: 117 % of control

## O=C1C2=C(C(=O)c3ncccc31)C1C=CC2CC1 (stereo not drawn)
dose: 25.0 mg/kg/injection, schedule: Q04DX003 (ip), vehicle: DMSO
  T/C: 99 % of control
dose: 50.0 mg/kg/injection, schedule: Q04DX003 (ip), vehicle: DMSO
  T/C: 103 % of control
dose: 100.0 mg/kg/injection, schedule: Q04DX003 (ip), vehicle: DMSO
  T/C: 99 % of control
dose: 200.0 mg/kg/injection, schedule: Q04DX003 (ip), vehicle: DMSO
  T/C: 89 % of control

## COc1cc(NS(C)(=O)=O)ccc1Nc1c2ccccc2nc2ccccc12
dose: 2.5 mg/kg/injection, schedule: Q04DX003 (ip), vehicle: other
  T/C: 117 % of control
dose: 5.0 mg/kg/injection, schedule: Q04DX003 (ip), vehicle: other
  T/C: 122 % of control
